Source: patent publication US20180344725A1, “QUINOLONE CHALCONE COMPOUNDS AND USES THEREOF” (priority 2015, published 2018)

Experiments:
Kidney histology (H&E) = type: in vivo, mice; settings: day 30; paclitaxel 10 mg/kg; CTR 30 mg/kg; or paclitaxel 5 mg/kg + CTR 15 mg/kg
Method: Animals were monitored for food and water consumption every day, and their body weights and tumor volumes were measured twice per week. Tumor volumes were measured with a digital caliper and were determined by using the following formula: ½ length×width^2. Blood samples were collected via cardiac puncture and processed further for ALT and AST measurements. The animals were then immediately euthanized by carbon dioxide. Tumors and vital organs (spleen, kidney, liver and lung) were collected and fixed in 10% buffered formalin at 4° C. overnight before being processed for paraffin embedding. The paraffin-embedded blocks were then cut into 4-5 μm thick sections. Each section of tumors and organs was stained with hematoxylin and eosin (H&E).
Changes in body weight, hemoglobin (Hb) and the amount and ratio of alanine transaminase (ALT)/aspartate transaminase (AST) were used to measure toxic effects. In addition, vital organs (liver, spleen, kidney and lung) were analyzed by […] after they were harvested, fixed, processed, paraffin-embedded, sectioned, and stained as described above.
ATH490 mice were treated as described in Table 11. At day 30, kidneys were harvested, stained with H&E, and observed under a Zeiss EPI-fluorescent microscope (40× objective).

purified porcine tubulin = assay: Microtubule polymerization assay; type: biochemical; settings: 1.0 mM GTP, 1 hour at 37° C.
Method: The effects of the tested CTR compounds of the present disclosure on the assembly of purified tubulin were determined using a tubulin polymerization kit according to the manufacturer's instructions (Cytoskeleton Inc., Denver, Colo.). Paclitaxel (provided in the same kit), nocodazole, and colchicine (Santa Cruz, Calif.) were used as controls for the assay. The absorbent-based assay kit is based on the principle that the light scattered by the microtubules is directly proportional to the polymer mass of the microtubules when measured at 37° C. at a wavelength of 340 nm. The fluorescence-based assay kit is on the principle that fluorescent reporter molecules are incorporated into microtubules as the polymerization process being occurred. The fluorescence enhancement was measured for one hour at one-minute intervals, at the excitation of 350 nm and the emission of 430 nm. Absorbance or fluorescence was measured with an automated plate reader (Synergy H4 Hybrid Multi-Mode Microplate Reader, Bio-Tek).

MCF10CA1a = assay: SRB cell viability, isogenic breast cell lines; type: cell-based; settings: MCF10CA1a (MCF10Ala [sic]), 72 hours; for Cell survival rate: 0.39 μM; for viability at 0.03125 µM: 31.25 nM
Method: FIG. 9 illustrates that CTR-17, CTR-20, CTR-21 and CTR-32 preferentially kill the fully malignant […] breast cancer cells over the pre-malignant MCF10AT1 and the non-malignant MCF-10A breast cells. Cells were treated with (A) CTR-17 at doses of 0.10, 0.39, 1.56 or 6.25 μM; (B) CTR-20 at doses of 0.10, 0.39, 1.56 or 6.25 μM; (C) CTR-21 at doses of 7.81, 15.63, 31.25, 62.5, 125 or 250 nM; or (D) CTR-32 at doses of 7.81, 15.63, 31.25, 62.5, 125 or 250 nM for 72 hours. Cell viability was determined using an SRB assay.
All of the cell lines used were purchased from ATCC and cultured in RPMI-1640 supplemented with 10% fetal bovine serum and antibiotics (100 units penicillin/100 μg/ml streptomycin), unless stated otherwise. 1845B5 and MCF-10A non-cancer breast cell lines were cultured in DME/F12 medium supplemented with 10% fetal bovine serum, antibiotics and growth factors. KB-3-1 is a human epidermal carcinoma cell line and KB-C-2 is its isogenic multidrug-resistant cell line with over-expressing ABCB1/P-gp. […] The human small cell lung carcinoma H69 cell line and its multidrug-resistant MRP1-overexpressing isogenic H69AR cell line were purchased from ATCC. The H69AR cell line was established in the presence of increasing concentrations of Adriamycin (doxorubicin). H69 cells grow as large multi-cell aggregates, making it difficult to accurately count cell numbers. Therefore, the cytotoxicity results obtained from H69AR cells were compared to SW1271, a small cell lung carcinoma cell line without a multidrug-resistant phenotype. The IL-6 dependent bortezomib-resistant ANBL6-BR cell line was further supplemented with 1 ng/ml of IL-6. The MCF10AT1 and MCF10CA1a cell lines are isogenic to the MCF10A cell line, and obtained from Dr. Valerie Weaver at the Center for Bioengineering and Tissue Regeneration, UCSF, CA, USA. MCF10AT1 is a premalignant cell line generated by transforming MCF10A with c-Ha-Ras; and MCF10CA1a was isolated by selecting malignant cells after MCF10AT1 cells were engrafted into mice (Liu & Lin 2004; Marella et al. 2009). The MCF10AT1 and MCF10CA1a cells were cultured in DMEM supplemented with 10% FBS (volume/volume). MDA-MB231TaxR cell line was generated in house by culturing MDA-MB231 cells in gradually increasing doses of paclitaxel over one-year period, and finally maintained at 100 nM paclitaxel. The drug-resistant cells were cultured in the absence of drug for at least one passage before carrying out experiments. All cells were maintained in a humidified incubator at 37° C. (5% CO2/95% air). Cell line authentication was performed using short tandem repeat (STR) profiling.
For (anti)proliferation assays, 4,000-5,000 cells/well of the 96-well clustered dish were incubated for 16 hours, as described previously (Hu et al., 2008; Skehan et al., 1990). After 16 hours, culture medium was replaced with fresh medium containing different dilutions of test compounds dissolved in DMSO. Some wells were treated with 100 μl of 10% trichloroacetic acid (TCA) as a negative control and sham (medium with dimethyl sulfoxide; DMSO) treated cells were used as a positive control. After 72 hours post-incubation, medium was removed and cells were fixed with 10% TCA at 4° C. for 1 hour. TCA was removed and cells were washed with cold tap water, and plate was air-dried, followed by addition of 50 μl of 0.4% SRB staining solution to each well. After 30 minutes incubation, SRB staining solution was removed. Cells were washed with 1% acetic acid solution, and then washed with tap water to remove unbound staining solution, followed by air-drying. 200 μl of 10 mM (pH10.5) trizma base buffer was added to each well to solubilise macromolecules. SRB stained macromolecules were determined at a 540 nm wavelength using an automated plate reader (Synergy H4 Hybrid Multi-Mode Microplate Reader, BioTek, Winooski, Vt.). Cell growth (inhibition) was calculated by the following formula: […]

| Structure (SMILES) | effects on the kidney (Kidney histology (H&E)) | effect on tubulin/microtubule polymerization (purified porcine tubulin) | Cell survival rate (MCF10CA1a) | viability at 0.03125 µM (MCF10CA1a) |
| --- | --- | --- | --- | --- |
| COc1ccccc1C(=O)/C=C/c1cc2ccccc2[nH]c1=O [CTR-17, (E)-3-(3-(2-Methoxyphenyl)-3-oxoprop-1-enyl)quinolin-2(1H)-one] | generally did not cause any notable ill-effects to the kidney | inhibited tubulin polymerization | 39% |  |
| COc1ccccc1C(=O)/C=C/c1cc2cccc(OC)c2[nH]c1=O [CTR-21, (E)-8-methoxy-3-(3-(2-methoxyphenyl)-3-oxoprop-1-enyl) quinolin-2(1H)-one] |  | microtubule polymerization inhibitors |  | 10% |
| COc1ccc2[nH]c(=O)c(/C=C/C(=O)c3ccccc3OC)cc2c1 [CTR-20, (E)-6-Methoxy-3-(3-(2-methoxyphenyl)-3-oxoprop-1-enyl) quinolin-2(1H)-one] | generally did not cause any notable ill-effects to the kidney | inhibited tubulin polymerization | 10% |  |
| CCOc1ccccc1C(=O)/C=C/c1cc2ccccc2[nH]c1=O [CTR-32, (E)-3-(3-(2-ethoxyphenyl)-3-oxoprop-1-enyl)quinolin-2(1H)-one] |  | microtubule polymerization inhibitors |  | 40% |
| CC(=O)O[C@H]1C(=O)[C@@]2(C)[C@H]([C@H](OC(=O)c3ccccc3)[C@]3(O)C[C@H](OC(=O)[C@H](O)[C@@H](NC(=O)c4ccccc4)c4ccccc4)C(C)=C1C3(C)C)[C@]1(OC(C)=O)CO[C@@H]1C[C@@H]2O [Paclitaxel, reference compound] | approximately 1 out of 5 mice showed renal abnormalities |  |  |  |
